Measured values from patent publication US20090302265A1, “Supercooling promoting agent” (priority 2006, published 2009).

Legend:
[1] = tested on: dead bacterial cells of ice nucleation active bacteria (Erwinia ananas); assay: supercooling activity (droplet freezing on cooled copper plate, temperature at which 50% of droplets are frozen); format: physicochemical; details: cooling 0.2° C./min; for supercooling activity (difference of freezing point vs buffer with ice nucleation bacteria only): 0.5 mg/mL test sample, 50 mM potassium phosphate buffer pH 7.0, 2 μL droplets; for supercooling activity: 0.1 mg/mL test compound, otherwise as example 1
Method: The supercooling activity (or represented as inhibiting activity of ice nucleus formation) is the value measured by the following method. […] A large number of 2 μL droplets of the solution are put on a cupper plate, which is temperature-controllable. Then, the cupper plate is cooled at the rate of 0.2° C./min, the number of frozen droplets are counted macroscopically and the temperature, wherein 50% of droplets are frozen, is defined as freezing point. The supercooling activity is defined as the difference (° C.) between the freezing point of solution containing test sample and ice nucleation active bacteria, and that of solution containing only ice nucleation bacteria and buffer solution.
The supercooling activities of these samples were measured by the following methods. After a buffer solution (50 mM potassium phosphate buffer, pH 7.0) containing dead bacterial cells (Wako pure chemical industries Ltd.,) of ice nucleation active bacteria (Erwinia ananas) mixed with 0.5 mg/mL of a test sample, 2 μL droplets of the solution are put on a cupper plate, which is temperature-controllable. Then, the cupper plate is cooled at the rate of 0.2° C./min, the number of frozen droplets are counted macroscopically and the temperature, wherein 50% of droplets are frozen, is defined as freezing point. The difference (° C.) between the freezing point and that of the buffer solution was measured.

[2] = tested on: cranberry shoot apexes (buds); assay: survival of cranberry shoot apexes after vitrification in liquid nitrogen and thawing; details: 0.05% by weight in 75% vitrification liquid (75% PVS2); liquid nitrogen overnight, thawed at room temperature; FIG. 9A vs 9B
Method: As a vitrification liquid, 75% dilution solution of PVS2 liquid (22.5% by volume glycerol, 11.25% by volume of ethyleneglycol, 11.25% by volume of DMSO, […], the remainder was Murashige & Skoog medium, DUCHEFA BIOCHEMIE BV) supplemented with 0.05% by weight of kaempferol-7-O-glucoside (compound 2, Extrasynthese Co.) was used (hereinafter referred to as “75% vitrification liquid”).
For comparison, a mixed solution without kaempferol-7-O-glucoside was prepared. Shoot apexes (buds) are isolated from cranberry (subcultured in Hokkaido University, Graduate School of Agriculture) and dipped in the above mixed solution at room temperature.
On the other hand, survival of shoot apexes, which were dipped in 75% vitrification liquid containing kaempferol-7-O-glucoside at room temperature for a specified loading time, put into liquid nitrogen, frozen for overnight, and then thawed at room temperature, is shown in frozen batch of FIG. 9A. Similarly, survival of the apexes, which were dipped in a vitrification liquid without kaempferol-7-O-glucoside and frozen, is shown in frozen batch of FIG. 9B.

pig liver cells = assay: viability of pig liver cells after supercooled storage (trypan blue staining); format: cell-based; details: 0.01% by weight in UW liquid with 1% by volume DMSO; −5° C. and −8° C.; 1, 4 and 7 days; FIG. 8
Method: The storage liquid was prepared by adding 0.01% by weight of kaempferol-7-glucoside (compound 2 (Cj5)), Extrasynthese Co.) and 1% by volume of DMSO (Wako pure chemical industries Ltd., guaranteed reagent) to a buffer solution (UW liquid, 100 mM lactobionic acid, 25 mM KH2PO4, 5 mM MgSO4, 30 mM raffinose, 2.5 mM adenosine, 3 mM GSH, 1 mM allopurinol, 0.25 mg/mL streptomycin, 10 UI/mL penicillin).
For comparison, a mixed solution (UW liquid) without kaempferol-7-O-glucoside and DMSO was prepared.
The viability of cells was evaluated by trypan blue (GIBCO) staining, when pig liver cells 5×10^6 cells/mL were dipped in 0.5 cc of the above storage liquid, supercooled at −5° C. and at −8° C., and stored for 1, 4 and 7 days.

supercooling activity [1] | SMILES | supercooling activity (difference of freezing point vs buffer with ice nucleation bacteria only) [1] | also measured
– | O=c1c(OC2OC(CO)[C@@H](O)C(O)[C@H]2O)c(-c2ccc(O)c(O)c2)oc2cc(O)cc(O)c12 (stereo partly drawn) [compound 1, quercetin-3-O-β-glucoside] | −1.8 °C | –
– | O=c1c(O)c(-c2ccc(O)cc2)oc2cc(OC3OC(CO)[C@@H](O)C(O)[C@H]3O)cc(O)c12 (stereo partly drawn) [compound 2, kaempherol-7-O-β-glucoside] | −7.7 °C | survival of shoot apexes after freezing (damage due to freezing) [2]: significantly reduced the damage due to freezing; viability of cells after supercooled storage (pig liver cells): enables storage of viable animal cells for long-term
−12.0 °C | O=c1cc(-c2ccc(O)cc2)oc2cc(O[C@@H]3O[C@H](CO)[C@@H](O)[C@H](O)[C@H]3O)cc(O)c12 [compound 6, apigenin 7-O-β-D-glucopyranoside] | – | –
−1.8 °C | C[C@@H]1O[C@@H](O[C@H]2[C@H](Oc3cc(O)c4c(=O)cc(-c5ccc(O)cc5)oc4c3)O[C@H](CO)[C@@H](O)[C@@H]2O)[C@H](O)[C@H](O)[C@H]1O [compound 8, apigenin 7-O-β-neohesperidoside] | – | –
−4.5 °C | O=c1cc(-c2ccccc2)oc2cc(O[C@@H]3O[C@H](CO)[C@@H](O)[C@H](O)[C@H]3O)cc(O)c12 [compound 5, Chrycin-7-O-β-D-glucopyranoside] | – | –
−4.9 °C | O=c1cc(-c2ccc(O[C@@H]3O[C@H](CO)[C@@H](O)[C@H](O)[C@H]3O)cc2)oc2cc(O[C@@H]3O[C@H](CO)[C@@H](O)[C@H](O)[C@H]3O)cc(O)c12 [compound 7, apigenin 4′, 7-di-O-β-D-glucopyranoside] | – | –
– | O=c1c(OC2OC(CO)[C@@H](O)C(O)[C@H]2O)c(-c2ccc(O)cc2)oc2cc(O)cc(O)c12 (stereo partly drawn) [compound 4, kaempferol-3-O-β-glucoside] | −2.5 °C | –
– | COc1c(O)cc(O)c2c(=O)c(OC3OC(CO)[C@@H](O)C(O)[C@H]3O)c(-c3ccc(O)cc3)oc12 (stereo partly drawn) [compound 3, 8-methoxykaempferol-3-O-β-glucoside] | −0.2 °C | –
